Data as given in the kinase profiling compilation of Christmann-Franck et al. (2016).

Columns and labels:
Experiment in all cases: KINOMEscan competition binding
Conditions in all cases: compound 10.0 µM
[1] = biological target: MAPK15 (human) (UniProt Q8TD08)
[2] = biological target: FGR (human) (UniProt P09769)
[3] = biological target: PIP4K2C (human) (UniProt Q8TBX8)
[4] = biological target: FYN (human) (UniProt P06241)
[5] = biological target: MAPKAPK2 (human) (UniProt P49137)
[6] = biological target: CDC42BPB (human) (UniProt Q9Y5S2)
[7] = biological target: WEE2 (human) (UniProt P0C1S8)
[8] = biological target: OXSR1 (human) (UniProt O95747)
[9] = biological target: CDK4 CCND1 (human) (UniProt P11802+P24385)
[10] = biological target: IRAK4 (human) (UniProt Q9NWZ3)
[11] = biological target: IGF1R (human) (UniProt P08069)
[12] = biological target: TRPM6 (human) (UniProt Q9BX84)
[13] = biological target: STK32C (human) (UniProt Q86UX6)
[14] = biological target: STK36 (human) (UniProt Q9NRP7)
[15] = biological target: STK25 (human) (UniProt O00506)
[16] = biological target: CSK (human) (UniProt P41240)
[17] = biological target: PRKACB (human) (UniProt P22694)
[18] = biological target: MAP4K3 (human) (UniProt Q8IVH8)
[19] = biological target: SRPK1 (human) (UniProt Q96SB4)
[20] = biological target: PIP5K1A (human) (UniProt Q99755)
[21] = biological target: PAK3 (human) (UniProt O75914)
[22] = biological target: PIK3C2B (human) (UniProt O00750)
[23] = biological target: TIE1 (human) (UniProt P35590)
[24] = biological target: MAP3K13 (human) (UniProt O43283)
[25] = biological target: RPS6KA1 KD2 (human) (UniProt Q15418)
[26] = biological target: BMPR2 (human) (UniProt Q13873)
[27] = biological target: PRKCQ (human) (UniProt Q04759)
[28] = biological target: MAP4K1 (human) (UniProt Q92918)
[29] = biological target: EPHA3 (human) (UniProt P29320)
[30] = biological target: TYRO3 (human) (UniProt Q06418)
[31] = biological target: MARK4 (human) (UniProt Q96L34)
[32] = biological target: CDKL5 (human) (UniProt O76039)
[33] = biological target: CLK2 (human) (UniProt P49760)
[34] = biological target: TAOK2 (human) (UniProt Q9UL54)
[35] = biological target: CDK16 (human) (UniProt Q00536)
[36] = biological target: PRKCD (human) (UniProt Q05655)
[37] = biological target: HIPK1 (human) (UniProt Q86Z02)
[38] = biological target: ACVR1B (human) (UniProt P36896)
[39] = biological target: PTK2 (human) (UniProt Q05397)
[40] = biological target: MAP2K1 (human) (UniProt Q02750)

CDK4 CCND1 (human), sequence (P11802 whole entry, looked up): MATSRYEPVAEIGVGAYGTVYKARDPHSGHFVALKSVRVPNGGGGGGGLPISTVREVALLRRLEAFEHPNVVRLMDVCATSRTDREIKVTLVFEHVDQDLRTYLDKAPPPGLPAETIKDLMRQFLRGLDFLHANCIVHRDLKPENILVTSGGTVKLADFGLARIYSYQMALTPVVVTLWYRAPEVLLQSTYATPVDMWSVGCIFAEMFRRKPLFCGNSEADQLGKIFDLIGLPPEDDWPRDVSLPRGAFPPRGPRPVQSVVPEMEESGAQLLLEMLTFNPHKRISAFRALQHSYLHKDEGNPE
CDK4 CCND1 (human), sequence (P24385 whole entry, looked up): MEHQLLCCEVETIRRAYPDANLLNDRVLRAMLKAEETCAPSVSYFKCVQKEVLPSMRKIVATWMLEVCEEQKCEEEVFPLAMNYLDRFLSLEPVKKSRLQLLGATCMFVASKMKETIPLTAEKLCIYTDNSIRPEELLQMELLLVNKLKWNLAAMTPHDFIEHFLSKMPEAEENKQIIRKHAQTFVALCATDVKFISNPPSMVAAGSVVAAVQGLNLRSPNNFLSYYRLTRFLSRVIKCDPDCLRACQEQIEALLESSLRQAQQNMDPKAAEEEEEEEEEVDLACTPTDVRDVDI
PRKCD (human), sequence (Q05655 whole entry, looked up): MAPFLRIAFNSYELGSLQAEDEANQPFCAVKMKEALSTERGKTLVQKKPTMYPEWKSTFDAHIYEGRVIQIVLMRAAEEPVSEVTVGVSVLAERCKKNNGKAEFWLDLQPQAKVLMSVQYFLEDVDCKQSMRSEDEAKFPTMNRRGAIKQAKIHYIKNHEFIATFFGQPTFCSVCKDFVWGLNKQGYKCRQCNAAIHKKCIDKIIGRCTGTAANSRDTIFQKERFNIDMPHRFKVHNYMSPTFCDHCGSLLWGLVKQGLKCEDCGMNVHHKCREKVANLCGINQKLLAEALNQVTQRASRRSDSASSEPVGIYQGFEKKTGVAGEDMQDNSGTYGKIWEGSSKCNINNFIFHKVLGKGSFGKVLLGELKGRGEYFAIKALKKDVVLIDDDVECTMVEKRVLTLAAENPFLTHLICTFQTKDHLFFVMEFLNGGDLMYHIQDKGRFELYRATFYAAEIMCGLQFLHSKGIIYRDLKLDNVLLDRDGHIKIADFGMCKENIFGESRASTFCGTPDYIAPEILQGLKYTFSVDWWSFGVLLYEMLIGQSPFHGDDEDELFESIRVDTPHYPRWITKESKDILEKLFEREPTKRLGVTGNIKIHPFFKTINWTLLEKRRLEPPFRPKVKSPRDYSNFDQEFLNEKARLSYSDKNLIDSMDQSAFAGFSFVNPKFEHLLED
TAOK2 (human), sequence (Q9UL54 whole entry, looked up): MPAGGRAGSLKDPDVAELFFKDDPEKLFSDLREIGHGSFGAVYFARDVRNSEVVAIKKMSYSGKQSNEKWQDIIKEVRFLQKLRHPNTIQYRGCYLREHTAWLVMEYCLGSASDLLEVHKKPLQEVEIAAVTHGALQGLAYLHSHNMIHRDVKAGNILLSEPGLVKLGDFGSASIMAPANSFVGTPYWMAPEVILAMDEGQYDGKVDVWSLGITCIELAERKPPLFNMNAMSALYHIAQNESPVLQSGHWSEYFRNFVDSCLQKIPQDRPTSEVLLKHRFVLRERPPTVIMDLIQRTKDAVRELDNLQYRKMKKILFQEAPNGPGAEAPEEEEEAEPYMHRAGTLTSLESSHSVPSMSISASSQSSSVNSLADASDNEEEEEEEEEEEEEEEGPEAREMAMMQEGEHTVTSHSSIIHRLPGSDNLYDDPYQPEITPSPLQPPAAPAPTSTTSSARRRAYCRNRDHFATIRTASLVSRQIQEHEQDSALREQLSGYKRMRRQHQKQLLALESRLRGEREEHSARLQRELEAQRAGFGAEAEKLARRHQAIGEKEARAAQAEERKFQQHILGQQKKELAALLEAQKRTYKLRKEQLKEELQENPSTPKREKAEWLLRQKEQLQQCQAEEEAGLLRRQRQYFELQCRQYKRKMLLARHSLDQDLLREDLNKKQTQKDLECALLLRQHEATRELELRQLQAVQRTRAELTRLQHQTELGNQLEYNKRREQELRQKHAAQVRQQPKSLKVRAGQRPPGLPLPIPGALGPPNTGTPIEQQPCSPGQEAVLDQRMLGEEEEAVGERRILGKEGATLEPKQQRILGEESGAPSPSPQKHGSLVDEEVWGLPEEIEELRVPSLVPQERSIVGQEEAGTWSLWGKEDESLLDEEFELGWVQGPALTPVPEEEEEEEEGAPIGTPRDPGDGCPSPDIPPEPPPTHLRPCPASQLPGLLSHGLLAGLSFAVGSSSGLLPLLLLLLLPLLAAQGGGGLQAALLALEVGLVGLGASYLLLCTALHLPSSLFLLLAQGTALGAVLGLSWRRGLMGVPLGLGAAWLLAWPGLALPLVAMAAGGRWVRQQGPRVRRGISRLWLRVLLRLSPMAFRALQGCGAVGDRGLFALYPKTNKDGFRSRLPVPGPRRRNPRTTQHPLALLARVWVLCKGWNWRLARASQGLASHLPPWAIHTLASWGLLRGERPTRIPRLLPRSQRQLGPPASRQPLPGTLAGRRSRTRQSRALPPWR
IRAK4 (human), sequence (Q9NWZ3 whole entry, looked up): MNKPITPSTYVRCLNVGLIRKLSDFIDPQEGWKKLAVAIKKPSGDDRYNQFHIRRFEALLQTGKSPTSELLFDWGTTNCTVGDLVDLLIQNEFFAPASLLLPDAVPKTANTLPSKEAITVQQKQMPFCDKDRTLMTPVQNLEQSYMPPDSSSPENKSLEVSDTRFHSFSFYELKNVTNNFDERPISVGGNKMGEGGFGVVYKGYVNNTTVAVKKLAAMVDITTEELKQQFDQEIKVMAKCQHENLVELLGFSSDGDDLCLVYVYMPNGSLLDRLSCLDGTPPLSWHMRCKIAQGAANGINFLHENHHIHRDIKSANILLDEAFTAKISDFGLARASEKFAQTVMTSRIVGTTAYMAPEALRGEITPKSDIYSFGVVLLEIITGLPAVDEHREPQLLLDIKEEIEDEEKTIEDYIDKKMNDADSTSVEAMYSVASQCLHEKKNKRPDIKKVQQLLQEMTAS
MAPK15 (human), sequence (Q8TD08 whole entry, looked up): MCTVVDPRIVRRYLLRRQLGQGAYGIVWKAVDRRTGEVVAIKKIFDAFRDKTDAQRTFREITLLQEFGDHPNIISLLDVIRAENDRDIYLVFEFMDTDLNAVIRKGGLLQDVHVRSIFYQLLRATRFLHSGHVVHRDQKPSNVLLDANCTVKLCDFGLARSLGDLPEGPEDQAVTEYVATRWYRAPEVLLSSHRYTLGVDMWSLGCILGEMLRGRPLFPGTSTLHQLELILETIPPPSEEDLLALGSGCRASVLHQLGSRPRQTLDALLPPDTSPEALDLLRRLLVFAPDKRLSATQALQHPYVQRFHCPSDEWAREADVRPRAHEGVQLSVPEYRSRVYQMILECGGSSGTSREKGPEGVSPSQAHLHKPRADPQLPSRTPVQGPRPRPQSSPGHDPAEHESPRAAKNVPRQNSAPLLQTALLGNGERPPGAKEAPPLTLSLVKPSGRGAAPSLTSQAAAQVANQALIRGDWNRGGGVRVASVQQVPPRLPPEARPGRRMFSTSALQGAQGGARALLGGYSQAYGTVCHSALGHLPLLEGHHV
CLK2 (human), sequence (P49760 whole entry, looked up): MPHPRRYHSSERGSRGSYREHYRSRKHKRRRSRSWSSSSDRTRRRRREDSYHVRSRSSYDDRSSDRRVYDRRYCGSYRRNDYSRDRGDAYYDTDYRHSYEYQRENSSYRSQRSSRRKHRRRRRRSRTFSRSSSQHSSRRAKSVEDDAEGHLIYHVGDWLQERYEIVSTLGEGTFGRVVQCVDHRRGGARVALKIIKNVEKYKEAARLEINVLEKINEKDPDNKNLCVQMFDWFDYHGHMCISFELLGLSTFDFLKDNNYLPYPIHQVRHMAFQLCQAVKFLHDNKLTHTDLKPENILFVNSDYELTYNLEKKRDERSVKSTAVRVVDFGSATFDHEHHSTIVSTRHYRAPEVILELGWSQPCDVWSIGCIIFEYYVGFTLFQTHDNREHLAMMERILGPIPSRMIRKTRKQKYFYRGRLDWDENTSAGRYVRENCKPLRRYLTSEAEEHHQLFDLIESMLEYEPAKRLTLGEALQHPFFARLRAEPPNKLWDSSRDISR
STK32C (human), sequence (Q86UX6 whole entry, looked up): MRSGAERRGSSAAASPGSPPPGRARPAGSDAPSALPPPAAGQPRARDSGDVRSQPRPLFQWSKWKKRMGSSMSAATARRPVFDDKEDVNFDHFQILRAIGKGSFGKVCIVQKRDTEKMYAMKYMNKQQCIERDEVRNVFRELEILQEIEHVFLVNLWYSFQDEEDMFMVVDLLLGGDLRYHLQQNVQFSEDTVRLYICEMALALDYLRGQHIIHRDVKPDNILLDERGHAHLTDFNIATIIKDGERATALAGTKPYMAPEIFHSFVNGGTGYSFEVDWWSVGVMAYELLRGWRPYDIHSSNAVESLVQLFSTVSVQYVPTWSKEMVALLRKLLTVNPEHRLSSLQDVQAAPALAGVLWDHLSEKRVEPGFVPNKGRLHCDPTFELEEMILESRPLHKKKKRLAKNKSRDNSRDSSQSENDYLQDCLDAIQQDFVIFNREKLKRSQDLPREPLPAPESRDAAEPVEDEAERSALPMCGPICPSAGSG
ACVR1B (human), sequence (P36896 whole entry, looked up): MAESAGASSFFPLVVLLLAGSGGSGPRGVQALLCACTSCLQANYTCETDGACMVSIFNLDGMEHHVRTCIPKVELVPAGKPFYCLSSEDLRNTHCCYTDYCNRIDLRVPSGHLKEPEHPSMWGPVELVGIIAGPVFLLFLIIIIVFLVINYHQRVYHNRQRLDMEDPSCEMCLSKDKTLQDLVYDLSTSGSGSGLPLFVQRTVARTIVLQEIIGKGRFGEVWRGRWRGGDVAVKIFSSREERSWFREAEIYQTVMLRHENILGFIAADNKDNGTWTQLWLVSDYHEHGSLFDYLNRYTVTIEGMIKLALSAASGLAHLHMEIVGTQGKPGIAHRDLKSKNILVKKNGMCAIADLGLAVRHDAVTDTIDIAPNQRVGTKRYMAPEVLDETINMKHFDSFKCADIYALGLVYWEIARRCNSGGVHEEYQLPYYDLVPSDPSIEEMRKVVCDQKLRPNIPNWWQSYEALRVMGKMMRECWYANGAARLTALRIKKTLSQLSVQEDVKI

**Q.** `N#C/C(=C1/Nc2ccccc2S1)c1ccnc(NCCc2cccnc2)n1` was tested. Which kinase still bound, per cent of control [1] did it give?
**A.** The kinase still bound, per cent of control was 73%.

**Q.** What about the kinase still bound, per cent of control [2] of the same compound?
**A.** Its kinase still bound, per cent of control is 100%.

**Q.** And the kinase still bound, per cent of control [3]?
**A.** The kinase still bound, per cent of control was 3.7%.

**Q.** And the kinase still bound, per cent of control [4]?
**A.** The kinase still bound, per cent of control was 100%.

**Q.** What about the kinase still bound, per cent of control [5] of the same compound?
**A.** Its kinase still bound, per cent of control is 100%.

**Q.** And the kinase still bound, per cent of control [6]?
**A.** Its kinase still bound, per cent of control is 81%.

**Q.** What about the kinase still bound, per cent of control [7] of the same compound?
**A.** The kinase still bound, per cent of control was 100%.

**Q.** What about the kinase still bound, per cent of control [8] of the same compound?
**A.** Its kinase still bound, per cent of control is 62%.

**Q.** What about the kinase still bound, per cent of control [9] of the same compound?
**A.** The kinase still bound, per cent of control was 32%.

**Q.** And the kinase still bound, per cent of control [10]?
**A.** The kinase still bound, per cent of control was 48%.

**Q.** What about the kinase still bound, per cent of control [11] of the same compound?
**A.** The kinase still bound, per cent of control was 100%.

**Q.** What about the kinase still bound, per cent of control [12] of the same compound?
**A.** Its kinase still bound, per cent of control is 100%.

**Q.** And the kinase still bound, per cent of control [13]?
**A.** Its kinase still bound, per cent of control is 99%.

**Q.** What about the kinase still bound, per cent of control [14] of the same compound?
**A.** Its kinase still bound, per cent of control is 100%.

**Q.** And the kinase still bound, per cent of control [15]?
**A.** Its kinase still bound, per cent of control is 60%.

**Q.** And the kinase still bound, per cent of control [16]?
**A.** Its kinase still bound, per cent of control is 88%.

**Q.** What about the kinase still bound, per cent of control [17] of the same compound?
**A.** The kinase still bound, per cent of control was 100%.

**Q.** And the kinase still bound, per cent of control [18]?
**A.** Its kinase still bound, per cent of control is 80%.

**Q.** And the kinase still bound, per cent of control [19]?
**A.** Its kinase still bound, per cent of control is 70%.

**Q.** What about the kinase still bound, per cent of control [20] of the same compound?
**A.** Its kinase still bound, per cent of control is 18%.

**Q.** And the kinase still bound, per cent of control [21]?
**A.** The kinase still bound, per cent of control was 100%.

**Q.** And the kinase still bound, per cent of control [22]?
**A.** Its kinase still bound, per cent of control is 19%.

**Q.** What about the kinase still bound, per cent of control [23] of the same compound?
**A.** Its kinase still bound, per cent of control is 100%.

**Q.** What about the kinase still bound, per cent of control [24] of the same compound?
**A.** The kinase still bound, per cent of control was 100%.

**Q.** What about the kinase still bound, per cent of control [25] of the same compound?
**A.** The kinase still bound, per cent of control was 27%.

**Q.** What about the kinase still bound, per cent of control [26] of the same compound?
**A.** The kinase still bound, per cent of control was 88%.

**Q.** What about the kinase still bound, per cent of control [27] of the same compound?
**A.** Its kinase still bound, per cent of control is 100%.

**Q.** And the kinase still bound, per cent of control [28]?
**A.** Its kinase still bound, per cent of control is 100%.

**Q.** And the kinase still bound, per cent of control [29]?
**A.** Its kinase still bound, per cent of control is 73%.

**Q.** What about the kinase still bound, per cent of control [30] of the same compound?
**A.** Its kinase still bound, per cent of control is 100%.

**Q.** What about the kinase still bound, per cent of control [31] of the same compound?
**A.** The kinase still bound, per cent of control was 100%.

**Q.** What about the kinase still bound, per cent of control [32] of the same compound?
**A.** The kinase still bound, per cent of control was 82%.

**Q.** And the kinase still bound, per cent of control [33]?
**A.** Its kinase still bound, per cent of control is 3.7%.

**Q.** What about the kinase still bound, per cent of control [34] of the same compound?
**A.** Its kinase still bound, per cent of control is 45%.

**Q.** What about the kinase still bound, per cent of control [35] of the same compound?
**A.** The kinase still bound, per cent of control was 44%.

**Q.** What about the kinase still bound, per cent of control [36] of the same compound?
**A.** The kinase still bound, per cent of control was 100%.

**Q.** What about the kinase still bound, per cent of control [37] of the same compound?
**A.** Its kinase still bound, per cent of control is 1.2%.

**Q.** What about the kinase still bound, per cent of control [38] of the same compound?
**A.** The kinase still bound, per cent of control was 84%.

**Q.** And the kinase still bound, per cent of control [39]?
**A.** The kinase still bound, per cent of control was 100%.

**Q.** And the kinase still bound, per cent of control [40]?
**A.** The kinase still bound, per cent of control was 9.6%.

**Q.** What does the source list for `N#Cc1cc(-c2ccnc(Nc3ccc(-n4cnc(-c5cccnc5)n4)cc3)n2)cc(N2CCOCC2)c1`?
**A.** kinase still bound, per cent of control [1]: 2%; kinase still bound, per cent of control [2]: 54%; kinase still bound, per cent of control [3]: 2.8%; kinase still bound, per cent of control [4]: 83%; kinase still bound, per cent of control [5]: 100%; kinase still bound, per cent of control [6]: 61%; kinase still bound, per cent of control [7]: 100%; kinase still bound, per cent of control [8]: 96%; kinase still bound, per cent of control [9]: 100%; kinase still bound, per cent of control [10]: 100%; kinase still bound, per cent of control [11]: 51%; kinase still bound, per cent of control [12]: 100%; kinase still bound, per cent of control [13]: 89%; kinase still bound, per cent of control [14]: 15%; kinase still bound, per cent of control [15]: 64%; kinase still bound, per cent of control [16]: 66%; kinase still bound, per cent of control [17]: 100%; kinase still bound, per cent of control [18]: 6.3%; kinase still bound, per cent of control [19]: 30%; kinase still bound, per cent of control [20]: 17%; kinase still bound, per cent of control [21]: 100%; kinase still bound, per cent of control [22]: 76%; kinase still bound, per cent of control [23]: 30%; kinase still bound, per cent of control [24]: 100%; kinase still bound, per cent of control [25]: 77%; kinase still bound, per cent of control [26]: 72%; kinase still bound, per cent of control [27]: 100%; kinase still bound, per cent of control [28]: 26%; kinase still bound, per cent of control [29]: 58%; kinase still bound, per cent of control [30]: 87%; kinase still bound, per cent of control [31]: 78%; kinase still bound, per cent of control [32]: 7%; kinase still bound, per cent of control [33]: 15%; kinase still bound, per cent of control [34]: 37%; kinase still bound, per cent of control [35]: 6.8%; kinase still bound, per cent of control [36]: 65%; kinase still bound, per cent of control [37]: 2.2%; kinase still bound, per cent of control [38]: 76%; kinase still bound, per cent of control [39]: 77%; kinase still bound, per cent of control [40]: 50%
